We go through 33 compounds from patent US7595401B2, “Therapeutic compounds and their use in cancer” (Myriad Pharmaceuticals, Inc., priority 2006, dated 2009).

Bounds are passed on as bounds.

The target of this experiment is purified human Hsp90. As to the kind of experiment: Binding Assay: fluorescence polarization with BODIPY-labeled geldanamycin. Conditions: BODIPY-GM 10 nM, Hsp90 30 nM. The method, then: Compound binding to purified Hsp90 was monitored using BODIPY-labeled geldanamycin (BODIPY-GM) in a fluorescence polarization assay adapted from Kim et al. (Journal of Biomolecular Screening 2004, 9(5):375-381). Compound dilutions (in 100% DMSO) were added to black-bottom 96-well plates (Greiner; 2% DMSO final), and equal volumes of BODIPY-GM (10 nM final) and purified human Hsp90 (Stressgen, SPP-770; 30 nM final) in assay buffer (20 mM HEPES-KOH pH 7.3, 50 mM KCl, 5 mM MgCl2, 20 mM Na2MoO4, 0.01% NP-40, 0.1 mg/mL bovine gamma globulin [Invitrogen, P2045], 2 mM DTT) were added sequentially to yield a final volume of 50 microliters. Plates were incubated overnight at room temperature. Parallel and perpendicular fluorescence measurements were read (LJL BioSystems Analyst AD plate reader) with excitation/emission wavelengths of 485/530 nm. Background fluorescence (buffer only) was subtracted, and fluorescence polarization (FP) values, expressed in mP units, were calculated from parallel and perpendicular fluorescence readings as follows: FP=(parallel−perpendicular)/(parallel+perpendicular)*1000
Percent inhibition was calculated by normalizing the FP values to those obtained in parallel reactions containing DMSO and subtracting these normalized values from 100%. Intrinsic compound fluorescence was independently monitored, and FP data points confounded by compound fluorescence were excluded from the analysis.
For orientation: Polarisation of emitted light reports the rotation of a fluorescent probe.

For orientation: IC50 means the concentration that inhibits the measured activity by half. Low readings indicate inhibition by little substance, high ones a need for much substance. The compound `Nc1ncnc2c1nc(Sc1cc3c(cc1Br)OCO3)n2CCc1c(F)c(F)c(F)c(F)c1F` [Example 41, 8-(6-Bromo-benzo[1,3]dioxol-5-ylsulfanyl)-9-(2-pentafluorophenyl-ethyl)-9H-purin-6-ylamine] displayed an IC50 of 500 nM.

The compound `Nc1ncn(CCc2c(F)c(F)c(F)c(F)c2F)c2nc(Sc3cc4c(cc3Br)OCO4)nc1-2` [Example 42, 8-(6-bromo-benzo[1,3]dioxol-5-ylsulfanyl)-3-(2-pentafluorophenyl-ethyl)-3H-purin-6-ylamine] had an IC50 of over 5000 nM.

As to `Nc1ncnc2c1nc(Sc1cc3c(cc1Br)OCO3)n2CCCc1ccccc1` [Example 43, 8-(6-Bromo-benzo[1,3]dioxol-5-ylsulfanyl)-9-(3-phenyl-propyl)-9H-purin-6-ylamine], the IC50 is 700 nM.

In the case of `Nc1ncn(CCCc2ccccc2)c2nc(Sc3cc4c(cc3Br)OCO4)nc1-2` [Example 44, 8-(6-bromo-benzo[1,3]dioxol-5-ylsulfanyl)-3-(3-phenyl-propyl)-3H-purin-6-ylamine], the IC50 is 27000 nM.

Turning to `COc1cc(Sc2nc3c(N)ncnc3n2CCc2ccccc2)cc(OC)c1OC` [Example 45, 9-Phenethyl-8-(3,4,5-trimethoxy-phensulfanyl)-9H-purin-6-ylamine], the IC50 stood at 8100 nM.

`COc1cc(Sc2nc3c(N)ncn(CCc4ccccc4)c-3n2)cc(OC)c1OC` [Example 46, 3-phenethyl-8-(3,4,5-trimethoxy-phenylsulfanyl)-3H-purin-6-ylamine] gave an IC50 of over 10000 nM.

For the compound `COc1cc(Sc2nc3c(N)ncnc3n2CCCc2ccccc2)cc(OC)c1OC` [Example 47, 9-(3-Phenyl-propyl)-8-(3,4,5-trimethoxy-phenylsulfanyl)-9H-purin-6-ylamine], the IC50 was over 10000 nM.

`COc1cc(Sc2nc3c(N)ncn(CCCc4ccccc4)c-3n2)cc(OC)c1OC` [Example 48, 3-(3-phenyl-propyl)-8-(3,4,5-trimethoxy-phenylsulfanyl)-3H-purin-6-ylamine] came in with a 50% inhibitory concentration (IC50) of over 10000 nM.

The term % Inhibition denotes how much of the control response was suppressed. A high value points to a response far below the control. On to `Nc1ncnc2c1nc(Sc1ccc3c(c1)OCO3)n2CCn1cccc1` [Example 49, 8-(Benzo[1,3]dioxol-5-ylsulfanyl)-9-(2-pyrrol-1-yl-ethyl)-9H-purin-6-ylamine], for which the “% Inhibition at 5 μM Compound Concentration” value (“% Inhibition” below) is on record as 55% and the IC50 stood at 1200 nM.

Regarding `Nc1ncn(CCn2cccc2)c2nc(Sc3ccc4c(c3)OCO4)nc1-2` [Example 50, 8-(benzo[1,3]dioxol-5-ylsulfanyl)-3-(2-pyrrol-1-yl-ethyl)-3H-purin-6-ylamine], the “% Inhibition” value was determined as 3%.

Consider `Nc1ncnc2c1nc(Sc1ccc3c(c1)OCO3)n2CCCn1cccc1` [Example 51, 8-(Benzo[1,3]dioxol-5-ylsulfanyl)-9-(3-pyrrol-1-yl-propyl)-9H-purin-6-ylamine], for which the “% Inhibition” value is reported as 52% and the IC50 came out at 1500 nM.

In the case of `Nc1ncn(CCCn2cccc2)c2nc(Sc3ccc4c(c3)OCO4)nc1-2` [Example 52, 8-(benzo[1,3]dioxol-5-ylsulfanyl)-3-(3-pyrrol-1-yl-propyl)-3H-purin-6-ylamine], the “% Inhibition” value came out at 0%.

For the compound `Nc1ncnc2c1nc(Sc1cc3c(cc1Br)OCO3)n2CCc1ccccc1Cl` [Example 53, 8-(6-Bromo-benzo[1,3]dioxol-5-ylsulfanyl)-9-[2-(2-chloro-phenyl)-ethyl]-9H-purin-6-ylamine], the IC50 stood at 45 nM.

Consider `Nc1ncn(CCc2ccccc2Cl)c2nc(Sc3cc4c(cc3Br)OCO4)nc1-2` [Example 54, 8-(6-bromo-benzo[1,3]dioxol-5-ylsulfanyl)-3-[2-(2-chloro-phenyl)-ethyl]-3H-purin-6-ylamine], for which the “% Inhibition” value was found to be 13%.

Compound `COc1ccc(OC)c(Sc2nc3c(N)ncnc3n2CCc2c(C)cc(C)cc2C)c1` [Example 55, 8-(2,5-Dimethoxy-phenylsulfanyl)-9-[2-(2,4,6-trimethyl-phenyl)-ethyl]-9H-purin-6-ylamine] showed an IC50 of 1700 nM.

With `COc1ccc(OC)c(Sc2nc3c(N)ncn(CCc4c(C)cc(C)cc4C)c-3n2)c1` [Example 56, 8-(2,5-dimethoxy-phenylsulfanyl)-3-[2-(2,4,6-trimethyl-phenyl)-ethyl]-3H-purin-6-ylamine], the “% Inhibition” value is given as 3%.

For `CCC(Cn1c(Sc2cc3c(cc2Br)OCO3)nc2c(N)ncnc21)c1ccccc1` (stereo not shown) [Example 57, 8-(6-Bromo-benzo[1,3]dioxol-5-ylsulfanyl)-9-(2-phenyl-butyl)-9H-purin-6-ylamine], the IC50 was 400 nM. That is a sub-micromolar value.

For `CCC(Cn1cnc(N)c2nc(Sc3cc4c(cc3Br)OCO4)nc1-2)c1ccccc1` (stereo not shown) [Example 58, 8-(6-bromo-benzo[1,3]dioxol-5-ylsulfanyl)-3-(2-phenyl-butyl)-3H-purin-6-ylamine], the “% Inhibition” value turned out to be 8%.

As to `COc1ccc(C2(Cn3c(Sc4cc5c(cc4Br)OCO5)nc4c(N)ncnc43)CC2)cc1` [Example 59, 8-(6-Bromo-benzo[1,3]dioxol-5-ylsulfanyl)-9-[1-(4-methoxy-phenyl)-cyclopropylmethyl]-9H-purin-6-ylamine], the IC50 was over 25000 nM.

As to `COc1ccc(C2(Cn3cnc(N)c4nc(Sc5cc6c(cc5Br)OCO6)nc3-4)CC2)cc1` [Example 60, 8-(6-bromo-benzo[1,3]dioxol-5-ylsulfanyl)-3-[1-(4-methoxy-phenyl)-cyclopropylmethyl]-3H-purin-6-ylamine], the “% Inhibition” value worked out at 30%.

Turning to `COc1ccc(OC)c(Sc2nc3c(N)ncnc3n2CC2(c3ccc(Cl)cc3)CCC2)c1` [Example 61, 9-[1-(4-Chloro-phenyl)-cyclobutylmethyl]-8-(2,5-dimethoxy-phenylsulfanyl)-9H-purin-6-ylamine], the IC50 was over 10000 nM.

Take `COc1ccc(OC)c(Sc2nc3c(N)ncn(CC4(c5ccc(Cl)cc5)CCC4)c-3n2)c1` [Example 62, 3-[1-(4-chloro-phenyl)-cyclobutylmethyl]-8-(2,5-dimethoxy-phenylsulfanyl)-3H-purin-6-ylamine]: the IC50 is over 10000 nM.

`COc1ccc(OC)c(Sc2nc3c(N)ncnc3n2CCc2ccc(C(C)=O)cc2)c1` [Example 63, 1-(4-{2-[6-Amino-8-(2,5-dimethoxy-phenylsulfanyl)-purin-9-yl]-ethyl}-phenyl)-ethanone] yielded an IC50 of over 5000 nM.

On to `COc1ccc(OC)c(Sc2nc3c(N)ncn(CCc4ccc(C(C)=O)cc4)c-3n2)c1` [Example 64, 1-(4-{2-[6-amino-8-(2,5-dimethoxy-phenylsulfanyl)-purin-3-yl]-ethyl}-phenyl)-ethanone], for which the IC50 was over 5000 nM.

As for `COc1ccc(OC)c(Sc2nc3c(N)ncnc3n2CCn2cccc2)c1` [Example 65, 8-(2,5-Dimethoxy-phenylsulfanyl)-9-(2-pyrrol-1-yl-ethyl)-9H-purin-6-ylamine], the “% Inhibition” value came out at 61% and the IC50 is 500 nM.

Regarding `COc1ccc(OC)c(Sc2nc3c(N)ncn(CCn4cccc4)c-3n2)c1` [Example 66, 8-(2,5-dimethoxy-phenylsulfanyl)-3-(2-pyrrol-1-yl-ethyl)-3H-purin-6-ylamine], the “% Inhibition” value is given as 5%.

Consider `COc1ccc(OC)c(Sc2nc3c(N)ncnc3n2CCc2cccc3ccccc23)c1` [Example 67, 8-(2,5-Dimethoxy-phenylsulfanyl)-9-(2-naphthalen-1-yl-ethyl)-9H-purin-6-ylamine], for which the “% Inhibition” value is given as 56% and the IC50 is 1500 nM.

With `COc1ccc(OC)c(Sc2nc3c(N)ncn(CCc4cccc5ccccc45)c-3n2)c1` [Example 68, 8-(2,5-dimethoxy-phenylsulfanyl)-3-(2-naphthalen-1-yl-ethyl)-3H-purin-6-ylamine], the “% Inhibition” value is given as 0%.

On to `COc1ccc(OC)c(Sc2nc3c(N)ncnc3n2CCc2ccccc2C)c1` [Example 69, 8-(2,5-Dimethoxy-phenylsulfanyl)-9-(2-o-tolyl-ethyl)-9H-purin-6-ylamine], for which the “% Inhibition” value is on record as 69% and the IC50 was 250 nM.

With `COc1ccc(OC)c(Sc2nc3c(N)ncn(CCc4ccccc4C)c-3n2)c1` [Example 70, 8-(2,5-dimethoxy-phenylsulfanyl)-3-(2-o-tolyl-ethyl)-3H-purin-6-ylamine], the “% Inhibition” value was 7%.

Regarding `COc1ccc(OC)c(Sc2nc3c(N)ncnc3n2CCc2ccc(Br)cc2)c1` [Example 71, 9-[2-(4-Bromo-phenyl)-ethyl]-8-(2,5-dimethoxy-phenylsulfanyl)-9H-purin-6-ylamine], the “% Inhibition” value is reported as 41% and the IC50 was over 25000 nM.

On to `COc1ccc(OC)c(Sc2nc3c(N)ncn(CCc4ccc(Br)cc4)c-3n2)c1` [Example 72, 3-[2-(4-bromo-phenyl)-ethyl]-8-(2,5-dimethoxy-phenylsulfanyl)-3H-purin-6-ylamine], for which the “% Inhibition” value amounted to 0%.

With `COc1ccc(OC)c(Sc2nc3c(N)ncnc3n2CCc2cccc(Cl)c2Cl)c1` [Example 73, 9-[2-(2,3-Dichloro-phenyl)-ethyl]-8-(2,5-dimethoxy-phenylsulfanyl)-9H-purin-6-ylamine], the “% Inhibition” value came out at 2% and the IC50 is over 3000 nM.
